Assay results published in US4764591A, “Des-19-leucine, 20-glutamine, 21-threonine, 22-tyrosine-calcitonin” (Rorer Pharmaceutical Corporation, priority 1987, dated 1988).
Positions of bridges follow the written chain, without caps; N, C: chain ends. Residues, ends and D or L forms follow the SMILES beside them.

Tests used:
[1] = system: serum calcium concentration
Experimental: Biological Assay of Calcitonin Analogs in Vivo
Rats were divided into four groups of seven animals, and each group was assigned at random to a dose of standard or test solution. Low and high doses were chosen from the linear portion of the dose-response curve. For the salmon calcitonin standard, the values were 0.7 and 2.1 ng. peptide/100 g. body weight (BW). This dose approximates 3 and 9 MU/100 g. BW. Peptides were given by subcutaneous injection (0.2 ml/100 g. BW) and blood was withdrawn 1 hour later for serum calcium determination. Sera are processed and analyzed within two hours of collection. Results were analyzed within two hours of collection.

[2] = literature values; cited from earlier work

Compound	hypocalcemic potency [2]	further results
CC(C)C[C@H](NC(=O)[C@H](CCCCN)NC(=O)CNC(=O)[C@H](CC(C)C)NC(=O)[C@@H](NC(=O)[C@@H]1CSSC[C@H](N)C(=O)N[C@@H](CO)C(=O)N[C@@H](CC(N)=O)C(=O)N[C@@H](CC(C)C)C(=O)N[C@@H](CO)C(=O)N[C@@H]([C@@H](C)O)C(=O)N1)C(C)C)C(=O)N[C@@H](CO)C(=O)N[C@@H](CCC(N)=O)C(=O)N[C@@H](CCC(=O)O)C(=O)N[C@@H](CC(C)C)C(=O)N[C@@H](Cc1c[nH]cn1)C(=O)N[C@@H](CCCCN)C(=O)N1CCC[C@H]1C(=O)N[C@@H](CCCNC(=N)N)C(=O)N[C@H](C(=O)N[C@@H](CC(N)=O)C(=O)N[C@H](C(=O)NCC(=O)N[C@@H](CO)C(=O)NCC(=O)N[C@H](C(=O)N1CCC[C@H]1C(N)=O)[C@@H](C)O)[C@@H](C)O)[C@@H](C)O [des-Leu^19, Gln^20, Thr^21, Tyr^22 -SCT, des-19-leucine, 20-glutamine, 21-threonine, 22-tyrosine-salmon calcitonin] (H-CSNLSTCVLGKLSQELHKPRTNTGSGTP-NH2; disulfide 1-7)	–	biological potency ([1]; rat, in vivo, sc): 6250 IU/mg
CC(C)C[C@H](NC(=O)[C@H](CCCCN)NC(=O)CNC(=O)[C@H](CC(C)C)NC(=O)[C@@H](NC(=O)[C@@H]1CSSC[C@H](N)C(=O)N[C@@H](CO)C(=O)N[C@@H](CC(N)=O)C(=O)N[C@@H](CC(C)C)C(=O)N[C@@H](CO)C(=O)N[C@@H]([C@@H](C)O)C(=O)N1)C(C)C)C(=O)N[C@@H](CO)C(=O)N[C@@H](CCC(N)=O)C(=O)N[C@@H](CCC(=O)O)C(=O)N[C@@H](CC(C)C)C(=O)N[C@@H](Cc1c[nH]cn1)C(=O)N[C@@H](CCCCN)C(=O)N[C@@H](CC(C)C)C(=O)N[C@@H](CCC(N)=O)C(=O)N[C@H](C(=O)N[C@@H](Cc1ccc(O)cc1)C(=O)N1CCC[C@H]1C(=O)N[C@@H](CCCNC(=N)N)C(=O)N[C@H](C(=O)N[C@@H](CC(N)=O)C(=O)N[C@H](C(=O)NCC(=O)N[C@@H](CO)C(=O)NCC(=O)N[C@H](C(=O)N1CCC[C@H]1C(N)=O)[C@@H](C)O)[C@@H](C)O)[C@@H](C)O)[C@@H](C)O [standard salmon calcitonin, salmon calcitonin]	–	potency content of the standard, independently determined ([1]; standard salmon calcitonin used in the assay, independently determined): greater than 4,000 IU/mg
(1,7-alpha-L-amino-suberic acid) eel calcitonin	about 3400 IU/mg.	–
eel calcitonin [synthetic eel calcitonin]	around 4300 IU/mg.	–
